Experimental data from article PMC5391171 (Journal of molecular and cellular cardiology, 2016).

Columns and labels:
[1] = target: cChimera (cNTnC-cTnI [136–163] chimera) (Homo sapiens, UniProt P19429+P63316, C35S/C84S); test: NMR titration; assay type: binding
[2] = system: cardiac isoform of troponin; conditions: cited from earlier work
[3] = titration monitored by chemical shift changes

| Structure (SMILES) | Kd [1] [µM] | Binding to cChimera [1, 3] | further results |
| --- | --- | --- | --- |
| Clc1cccc(Nc2ccccc2)c1 [3-chlorodiphenylamine] | 10 |  |  |
| Cc1ccc(S(=O)(=O)Nc2ccc(Nc3ccccc3)cc2)cc1 [NSC41053] |  | NSC41053 Weak binding (very small chemical shift changes that could not be fit to a saturating curve, indicating a KD > 2 mM) |  |
| O=[N+]([O-])c1cccc(Cc2ccc(Cc3cccc([N+](=O)[O-])c3)cc2)c1 [NSC89784] |  | NSC89784 Weak binding (very small chemical shift changes that could not be fit to a saturating curve, indicating a KD > 2 mM) |  |
| O=C(O)c1ccccc1Nc1ccccc1 [NSC215211] | 800 |  |  |
| c1ccc(CNCc2ccccc2)cc1 [dibenzylamine] |  |  | Binding to cChimera ([1]; addition of a methylene carbon relative to benzylaniline): completely abolished binding |
| C#Cc1cnc2nc(O)n(C(CC)CC)c2n1 [tirasemtiv] |  |  | activity towards the cardiac isoform of troponin [2]: no activity |
